Data: ChEMBL document CHEMBL3734710 (Eur J Med Chem, 2015)

Columns and labels:
[1] = in vivo; details: rat, po, 10 mg/kg
[2] = in vivo; details: rat, po, 10 mg/kg; remark: listed apart in the source
[3] = in vivo; details: rat, iv
[4] = in vivo; details: rat, po, 10 mg/kg; remark: listed apart in the source
[5] = in vivo; details: rat, po, 10 mg/kg; remark: listed apart in the source
[6] = in vivo; details: rat, iv; remark: listed apart in the source
[7] = in vivo; details: rat, iv; remark: listed apart in the source
[8] = in vivo; details: rat, iv, 5 mg/kg
[9] = in vivo; details: rat, iv, 5 mg/kg; remark: listed apart in the source
[10] = in vivo; details: rat, iv, 5 mg/kg; remark: listed apart in the source

| Structure (SMILES) | bioavailability [1] [%] | Cmax [2] [ng/mL] | clearance [3] [mL/min/kg] | Tmax [4] [h] | AUC(0-inf) [5] [ng·h/mL] | Vd [6] [L/kg] | half-life [7] [h] | half-life [8] [h] | Vd [9] [L/kg] | clearance [10] [mL/min/kg] |
| --- | --- | --- | --- | --- | --- | --- | --- | --- | --- | --- |
| CCc1cc2c(cc1-c1cnn(CC(=O)N(C)C)c1)C(C)(C)c1[nH]c3cc(C#N)ccc3c1C2=O | 7.1 | 218 | 10.8 | 3.3 | 1350 | 1.17 | 3.77 |  |  |  |
| CC1(C)c2cc(C3CCN(CC4CCOCC4)CC3)ccc2C(=O)c2c1[nH]c1cc(C#N)ccc21 | 67.1 | 351 |  | 4.5 | 7290 |  |  | 15.8 | 17.4 | 14.2 |
| CC1(C)c2cc(C3CCN(CC4(O)CCOCC4)CC3)ccc2C(=O)c2c1[nH]c1cc(C#N)ccc21 | 42.4 | 192 |  | 3.3 | 1940 |  |  | 5.41 | 12.9 | 38 |
